The text below walks through data of patent US9981944B2, “GDF-8 inhibitors” (Rigel Pharmaceuticals, Inc., priority 2015, dated 2018).

For one assay, the target named is HIS-TGFβR2 WT (Homo sapiens (Human), UniProt P37173). The experiment in a line: HTRF probe displacement assay, HIS-TGFβR2 WT. The assay is classed as binding. Particulars: 1 nM HIS-TGFβR2 WT, 1 hour at room temperature, read-out: TGFBR2WT IC50. On the procedure: (§1) Compounds were dissolved at 10 mM in dimethylsulfoxide (DMSO) and evaluated at eleven concentrations. IC50 values were derived by non-linear regression analysis.

In the next assay the target is HIS-TGFβR1 T204D (Homo sapiens (Human), UniProt P36897, T204D). Kind of assay: HTRF probe displacement assay, HIS-TGFβR1 T204D. The assay is classed as binding. Conditions: 1 nM HIS-TGFβR1 T204D, 1 hour at room temperature, read-out: TGFBR1T204D IC50. The protocol: as §1
Sequence of HIS-TGFβR1 T204D (P36897 34-503 T204D): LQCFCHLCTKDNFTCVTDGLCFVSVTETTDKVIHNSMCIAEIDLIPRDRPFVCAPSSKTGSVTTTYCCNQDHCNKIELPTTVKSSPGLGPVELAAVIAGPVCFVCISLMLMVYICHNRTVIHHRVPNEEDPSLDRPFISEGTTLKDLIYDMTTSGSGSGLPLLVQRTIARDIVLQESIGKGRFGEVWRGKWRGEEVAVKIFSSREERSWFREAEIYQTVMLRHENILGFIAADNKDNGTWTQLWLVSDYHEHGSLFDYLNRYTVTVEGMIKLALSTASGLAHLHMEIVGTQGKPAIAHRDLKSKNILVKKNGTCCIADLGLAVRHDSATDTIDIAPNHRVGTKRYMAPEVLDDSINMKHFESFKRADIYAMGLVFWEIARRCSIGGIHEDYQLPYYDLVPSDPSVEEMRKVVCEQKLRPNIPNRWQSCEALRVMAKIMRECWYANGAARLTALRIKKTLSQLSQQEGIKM

Sequence of HIS-TGFβR2 WT (P37173 23-567): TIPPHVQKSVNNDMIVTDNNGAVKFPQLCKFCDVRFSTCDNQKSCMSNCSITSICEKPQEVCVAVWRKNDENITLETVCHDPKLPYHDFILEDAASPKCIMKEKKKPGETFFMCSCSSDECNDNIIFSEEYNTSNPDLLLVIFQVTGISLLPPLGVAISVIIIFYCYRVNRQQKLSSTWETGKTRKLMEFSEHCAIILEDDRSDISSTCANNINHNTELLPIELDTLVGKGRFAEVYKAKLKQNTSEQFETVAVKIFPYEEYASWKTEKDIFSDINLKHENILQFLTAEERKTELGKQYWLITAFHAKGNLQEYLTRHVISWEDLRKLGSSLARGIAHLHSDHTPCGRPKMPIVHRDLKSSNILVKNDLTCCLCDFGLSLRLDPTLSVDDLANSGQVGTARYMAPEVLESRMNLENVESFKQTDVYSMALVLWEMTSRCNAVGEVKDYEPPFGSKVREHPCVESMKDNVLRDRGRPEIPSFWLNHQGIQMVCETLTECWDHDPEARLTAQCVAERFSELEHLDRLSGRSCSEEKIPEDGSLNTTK

Regarding `Cc1cccc(-c2nc(C)ccc2-c2ccc3ncc(C(N)=O)n3c2)n1` [Compound 87], the results for the IC50 on HIS-TGFβR2 WT and on HIS-TGFβR1 T204D were greater than 15 µM and 0.015 µM, respectively.
The corresponding values for `CC(C)c1cccc(-c2ncccc2-c2ccc3ncc(C#N)n3n2)n1` [Compound 63, 6-(6′-isopropyl-[2,2′-bipyridin]-3-yl)imidazo[1,2-b]pyridazine-3-carbonitrile] are greater than 15 µM and 1.95 µM.
As for `CCc1cccc(-c2ncccc2-c2ccc3ncnc(N)c3c2)n1` [Compound 107, 6-(6′-ethyl-[2,2′-bipyridin]-3-yl)quinazolin-4-amine], the IC50 at HIS-TGFβR2 WT was greater than 15 µM; at HIS-TGFβR1 T204D, 0.009 µM.
In the same order, the values of `CCOC(=O)c1cnn2ccc(-c3cccnc3-c3cccc(C(F)F)n3)nc12` [Compound 134, ethyl 5-(6′-(difluoromethyl)-[2,2′-bipyridin]-3-yl)pyrazolo[1,5-a]pyrimidine-3-carboxylate] are greater than 15 µM and 0.028 µM.
In the same order, the values of `Cc1nc(-c2ncccc2-c2ccc3[nH]ncc3c2)ccc1F` [Compound 117, 5-(5′-fluoro-6′-methyl-[2,2′-bipyridin]-3-yl)-1H-indazole] are greater than 15 µM and 0.002 µM.
In the same order, the values of `Cc1ccc(-c2ncccc2-c2ccc3ncc(C#N)n3n2)nc1` [Compound 55, 6-(5′-methyl-[2,2′-bipyridin]-3-yl)imidazo[1,2-b]pyridazine-3-carbonitrile] are greater than 15 µM and 5.23 µM.
On to `NC(=O)c1cnc2ccc(-c3cccnc3-c3cccc(C(F)F)n3)nn12` [Compound 52, 6-(6′-(difluoromethyl)-[2,2′-bipyridin]-3-yl)imidazo[1,2-b]pyridazine-3-carboxamide], for which the IC50 on HIS-TGFβR2 WT is greater than 15 µM; at HIS-TGFβR1 T204D, 0.03 µM.
In the same order, the values of `COc1cccc(-c2ncccc2-c2ccc3ncc(C(N)=O)n3n2)n1` [Compound 51, 6-(6′-methoxy-[2,2′-bipyridin]-3-yl)imidazo[1,2-b]pyridazine-3-carboxamide] are greater than 15 µM and 0.021 µM.
The corresponding values for `O=C(O)c1cnn2ccc(-c3cccnc3-c3cccc(C(F)(F)F)n3)nc12` [Compound 124, 5-(6′-(trifluoromethyl)-[2,2′-bipyridin]-3-yl)pyrazolo[1,5-a]pyrimidine-3-carboxylic acid] are greater than 15 µM and 0.137 µM.
In the same order, the values of `N#Cc1cnc2ccc(-c3cccnc3-c3cc(F)ccn3)nn12` [Compound 59, 6-(4′-fluoro-[2,2′-bipyridin]-3-yl)imidazo[1,2-b]pyridazine-3-carbonitrile] are greater than 15 µM and 0.918 µM.
Regarding `CCOC(=O)c1cnn2ccc(-c3cccnc3-c3ccc(F)c(C)n3)nc12` [Compound 130, ethyl 5-(5′-fluoro-6′-methyl-[2,2′-bipyridin]-3-yl)pyrazolo[1,5-a]pyrimidine-3-carboxylate], the IC50 at HIS-TGFβR2 WT is greater than 15 µM; at HIS-TGFβR1 T204D it was 0.014 µM.
In the same order, the values of `COC(=O)c1ccc(-c2ncccc2-c2ccc3ncc(C(N)=O)n3c2)nc1` [Compound 26, methyl 3′-(3-carbamoylimidazo[1,2-a]pyridin-6-yl)-[2,2′-bipyridine]-5-carboxylate] are greater than 15 µM and 7.65 µM.
With `CC(=O)Nc1ccnc(-c2cccc(C)n2)c1-c1ccc2ncc(C#N)n2c1` [Compound 100, N-(3-(3-cyanoimidazo[1,2-a]pyridin-6-yl)-6′-methyl-[2,2′-bipyridin]-4-yl)acetamide], the figures for the IC50 at HIS-TGFβR2 WT and at HIS-TGFβR1 T204D were greater than 15 µM and 11.1 µM, respectively.
The corresponding values for `CC(C)(O)c1cccc(-c2ncccc2-c2ccc3ncc(C#N)n3c2)n1` [Compound 41] are greater than 15 µM and 15 µM.
Take `N#Cc1cnc2ccc(-c3cccnc3-c3ccc(F)cn3)cn12` [Compound 20, 6-(5′-fluoro-[2,2′-bipyridin]-3-yl)imidazo[1,2-a]pyridine-3-carbonitrile]: the IC50 on HIS-TGFβR2 WT is greater than 15 µM; at HIS-TGFβR1 T204D, 0.103 µM.
As to `NC(=O)c1cn2cc(-c3cccnc3-c3cccc(C(F)(F)F)n3)ccc2n1` [Compound 79, 6-(6′-(trifluoromethyl)-[2,2′-bipyridin]-3-yl)imidazo[1,2-a]pyridine-2-carboxamide], the IC50 was greater than 15 µM at HIS-TGFβR2 WT and 15 µM on HIS-TGFβR1 T204D.
In the same order, the values of `Cc1cccc(-c2ncccc2-c2ccc3nc(C(N)=O)cn3c2)n1` [Compound 80, 6-(6′-methyl-[2,2′-bipyridin]-3-yl)imidazo[1,2-a]pyridine-2-carboxamide] are greater than 15 µM and 1.02 µM.
In the same order, the values of `Cc1cccc(-c2ncccc2-c2ccc3ncc(C(=O)NCC(F)(F)F)n3c2)n1` [Compound 69, 6-(6′-methyl-[2,2′-bipyridin]-3-yl)-N-(2,2,2-trifluoroethyl)imidazo[1,2-a]pyridine-3-carboxamide] are greater than 15 µM and 0.007 µM.
As for `CCc1cccc(-c2ncccc2-c2ccc3ncc(C#N)n3c2)n1` [Compound 30, 6-(6′-ethyl-[2,2′-bipyridin]-3-yl)imidazo[1,2-a]pyridine-3-carbonitrile], the IC50 on HIS-TGFβR2 WT is greater than 15 µM.
Regarding `CC(=O)Nc1ccc(-c2ccc3ncc(C(N)=O)n3c2)c(-c2cccc(C)n2)n1` [Compound 95, 6-(6-acetamido-6′-methyl-[2,2′-bipyridin]-3-yl)imidazo[1,2-a]pyridine-3-carboxamide], the IC50 was greater than 15 µM on HIS-TGFβR2 WT and 0.353 µM on HIS-TGFβR1 T204D.
The corresponding values for `Nc1ncnc2ccc(-c3cccnc3-c3cccc(C(F)F)n3)nc12` [Compound 105, 6-(6′-(difluoromethyl)-[2,2′-bipyridin]-3-yl)pyrido[3,2-d]pyrimidin-4-amine] are greater than 15 µM and 0.003 µM.
The corresponding values for `Cc1ccc(-c2ncccc2-c2ccc3ncc(C(N)=O)n3n2)nc1` [Compound 56, 6-(5′-methyl-[2,2′-bipyridin]-3-yl)imidazo[1,2-b]pyridazine-3-carboxamide] are greater than 15 µM and 5.29 µM.
Consider `NC(=O)c1cnc2ccc(-c3cccnc3-c3cccc(F)n3)cn12` [Compound 37, 6-(6′-fluoro-[2,2′-bipyridin]-3-yl)imidazo[1,2-a]pyridine-3-carboxamide], for which the IC50 on HIS-TGFβR1 T204D is 0.004 µM.
For the compound `NC(=O)c1cnc2ccc(-c3cccnc3-c3cccc(C4CC4)n3)cn12` [Compound 35, 6-(6′-cyclopropyl-[2,2′-bipyridin]-3-yl)imidazo[1,2-a]pyridine-3-carboxamide], the IC50 on HIS-TGFβR2 WT is greater than 15 µM; on HIS-TGFβR1 T204D, 0.001 µM.
As for `O=C(NC1CC1)c1cnn2ccc(-c3cccnc3-c3cccc(C(F)(F)F)n3)nc12` [Compound 126, N-cyclopropyl-5-(6′-(trifluoromethyl)-[2,2′-bipyridin]-3-yl)pyrazolo[1,5-a]pyrimidine-3-carboxamide], the IC50 at HIS-TGFβR2 WT is greater than 15 µM; on HIS-TGFβR1 T204D, 0.094 µM.
Turning to `Cc1cccc(-c2ncccc2-c2ccc3ncc(C(=O)NC4COC4)n3n2)n1` [Compound 74, 6-(6′-methyl-[2,2′-bipyridin]-3-yl)-N-(oxetan-3-yl)imidazo[1,2-b]pyridazine-3-carboxamide], the IC50 was greater than 15 µM at HIS-TGFβR2 WT and 0.108 µM on HIS-TGFβR1 T204D.
Consider `Cc1cccc(-c2ncc(N)cc2-c2ccc3ncc(C(=O)O)n3c2)n1` [Compound 99, 6-(5-amino-6′-methyl-[2,2′-bipyridin]-3-yl)imidazo[1,2-a]pyridine-3-carboxylic acid], for which the IC50 on HIS-TGFβR1 T204D is 0.004 µM.
On the same count and under the same terms, to `Cc1nc(-c2ncccc2-c2ccc3ncc(C(N)=O)n3c2)ccc1F` [Compound 19, 6-(5′-fluoro-6′-methyl-[2,2′-bipyridin]-3-yl)imidazo[1,2-a]pyridine-3-carboxamide] belongs 0.001 µM; to `CC(=O)Nc1cnc(-c2cccc(C)n2)c(-c2ccc3ncc(C(N)=O)n3c2)c1` [Compound 97, 6-(5-acetamido-6′-methyl-[2,2′-bipyridin]-3-yl)imidazo[1,2-a]pyridine-3-carboxamide], 0.005 µM.
The same measure, in the same setting: the figure for `COc1cccc(-c2ncccc2-c2ccc3ncc(C(N)=O)n3c2)n1` [Compound 33, 6-(6′-methoxy-[2,2′-bipyridin]-3-yl)imidazo[1,2-a]pyridine-3-carboxamide] is 0.001 µM.
Take `NC(=O)c1cnc2ccc(-c3cccnc3-c3ccc(F)c(C(F)F)n3)cn12` [Compound 24, 6-(6′-(difluoromethyl)-5′-fluoro-[2,2′-bipyridin]-3-yl)imidazo[1,2-a]pyridine-3-carboxamide]: the IC50 on HIS-TGFβR2 WT was greater than 15 µM.
For the compound `Cc1cccc(-c2ncc(F)cc2-c2ccc3ncc(C(N)=O)n3c2)n1` [Compound 82, 6-(5-fluoro-6′-methyl-[2,2′-bipyridin]-3-yl)imidazo[1,2-a]pyridine-3-carboxamide], at HIS-TGFβR1 T204D, the IC50 stood at 0.001 µM.
In the case of `NC(=O)c1cnc2ccc(-c3cccnc3-c3ccc(F)cn3)cn12` [Compound 21, 6-(5′-fluoro-[2,2′-bipyridin]-3-yl)imidazo[1,2-a]pyridine-3-carboxamide], on HIS-TGFβR1 T204D, the IC50 was 0.005 µM.
On the same count and under the same terms, to `NC(=O)c1cnc2ccc(-c3cccnc3-c3ccccn3)cn12` [Compound 39, 6-([2,2′-bipyridin]-3-yl)imidazo[1,2-a]pyridine-3-carboxamide] belongs 0.006 µM.
Same read-out and setting: to `Cc1nc(-c2ncc(F)cc2-c2ccc3ncc(C(N)=O)n3c2)ccc1F` [Compound 85, 6-(5,5′-difluoro-6′-methyl-[2,2′-bipyridin]-3-yl)imidazo[1,2-a]pyridine-3-carboxamide] belongs 0.002 µM; to `NC(=O)c1cnc2ccc(-c3cccnc3-c3cc(F)ccn3)cn12` [Compound 22, 6-(4′-fluoro-[2,2′-bipyridin]-3-yl)imidazo[1,2-a]pyridine-3-carboxamide], 0.005 µM; to `Cc1cccc(-c2ncc(N)cc2-c2ccc3ncc(C(N)=O)n3c2)n1` [Compound 98, 6-(5-amino-6′-methyl-[2,2′-bipyridin]-3-yl)imidazo[1,2-a]pyridine-3-carboxamide], 0.002 µM.
